One series has as its system MCF-7:C cells. Particulars: 10 nM; cited from earlier work.
Another series relates to HBV. The note with it: mouse, in vivo; cited from earlier work.
The subject of a further series is hepatitis B virus (HBV). Particulars: HepG2 2.2.15 cells infected with HBV; cited from earlier work.
Another series deals with HepG2 2.2.15 cells. The note with it: cited from earlier work.
The next series deals with HIV-1. Particulars: MT-4 cells; cited from earlier work.
Series [1] has as its target transient receptor potential canonical channel 5 (TRPC5) (Homo sapiens, UniProt Q9UL62). Particulars: cited from earlier work.
In the next series the test system is S. epidermidis. Particulars: various strains; cited from earlier work.
For a further series, the system named is S. aureus. The note with it: various strains; cited from earlier work.
In the next series the test system is S. viridans. Particulars: various strains; cited from earlier work.
Another series concerns S. pneumoniae. The note with it: various strains; cited from earlier work.
Series [2] has as its system isolated peripheral blood mononuclear cells. Particulars: cited from earlier work.
Series [3] deals with human acidic mammalian chitinase (Homo sapiens, UniProt Q9BZP6). The note with it: cited from earlier work.
Sequence of human acidic mammalian chitinase (Q9BZP6 22-476): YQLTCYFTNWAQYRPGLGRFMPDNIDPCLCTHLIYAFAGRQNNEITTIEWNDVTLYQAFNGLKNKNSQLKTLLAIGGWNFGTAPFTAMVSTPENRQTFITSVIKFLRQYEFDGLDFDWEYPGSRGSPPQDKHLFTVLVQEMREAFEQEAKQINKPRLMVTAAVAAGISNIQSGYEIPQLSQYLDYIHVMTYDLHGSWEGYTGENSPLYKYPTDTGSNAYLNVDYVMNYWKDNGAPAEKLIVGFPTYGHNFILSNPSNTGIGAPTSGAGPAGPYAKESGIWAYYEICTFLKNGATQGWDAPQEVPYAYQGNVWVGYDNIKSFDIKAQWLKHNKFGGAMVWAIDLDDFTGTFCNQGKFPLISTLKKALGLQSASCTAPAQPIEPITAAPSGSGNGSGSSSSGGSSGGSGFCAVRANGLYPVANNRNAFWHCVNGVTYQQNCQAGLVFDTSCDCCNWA
Series [4] addresses lysophosphatidic acyl transferase (LPAAT). Particulars: LPS-activated LPAAT; read-out: IC50 (generation of phosphatidic acid); cited from earlier work.
For series [5] the following is noted: 20 mg/kg saquinavir with 50 mg/kg ritonavir, mice; cited from earlier work.
A further series addresses HIV-2 protease (Human immunodeficiency virus type 2 subtype A, UniProt P04584). The note with it: cited from earlier work.
In another series the test system is Notch signaling. The note with it: cited from earlier work.
The target of a further series is T1, ACE2 (Homo sapiens, UniProt Q9BYF1).
T1 construct: purchased BPS Bioscience 79923 (assay kit)
T1 sequence (Q9BYF1 18-805): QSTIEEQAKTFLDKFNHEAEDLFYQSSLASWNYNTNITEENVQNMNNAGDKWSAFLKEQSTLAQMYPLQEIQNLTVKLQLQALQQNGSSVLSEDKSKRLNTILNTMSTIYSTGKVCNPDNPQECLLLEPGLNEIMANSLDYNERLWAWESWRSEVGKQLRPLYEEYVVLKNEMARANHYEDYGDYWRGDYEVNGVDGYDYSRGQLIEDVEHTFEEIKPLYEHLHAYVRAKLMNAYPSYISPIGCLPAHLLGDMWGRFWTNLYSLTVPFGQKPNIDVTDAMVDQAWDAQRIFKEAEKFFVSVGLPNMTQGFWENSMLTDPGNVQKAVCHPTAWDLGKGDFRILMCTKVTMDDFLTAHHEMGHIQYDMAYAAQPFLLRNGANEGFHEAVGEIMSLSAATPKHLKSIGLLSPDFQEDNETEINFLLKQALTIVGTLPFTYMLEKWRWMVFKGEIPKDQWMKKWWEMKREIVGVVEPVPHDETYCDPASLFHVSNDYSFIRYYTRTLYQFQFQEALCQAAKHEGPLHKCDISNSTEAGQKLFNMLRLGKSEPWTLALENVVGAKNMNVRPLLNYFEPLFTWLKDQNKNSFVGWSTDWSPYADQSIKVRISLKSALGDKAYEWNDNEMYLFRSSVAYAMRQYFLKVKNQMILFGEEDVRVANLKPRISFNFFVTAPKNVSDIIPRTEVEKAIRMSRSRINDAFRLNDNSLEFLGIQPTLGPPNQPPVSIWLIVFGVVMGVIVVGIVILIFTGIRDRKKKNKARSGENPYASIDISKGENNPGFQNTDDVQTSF
The series is described as follows: ACE2 activity assay. The format is biochemical. The source says:
The ACE2 Activity Assay described in this example is designed to measure the exopeptidase activity of ACE2 for screening and profiling applications. The ACE2 assay can be performed in a convenient 96-well format, with purified ACE2, its substrate, and ACE2 buffer for 96 reactions. See https://bpsioscience.com/ace2-inhibitor-screening-assay-kit-79923
ACE2, ACE2 Fluorogenic Substrate, ACE2 buffer, 96-well black microplate. Adjustable micropipettor and sterile tips and Fluorescent microplate reader.
All Samples and Controls were Tested in Duplicate.
• 1. Thawed ACE2 on ice. Upon first thaw, tube containing enzyme was briefly spun to recover full contents of the tube. Note: ACE2 is sensitive to freeze/thaw cycles. • 2. Prepared Enzyme solution (0.5 ng/μl ACE2) by diluting ACE2 in ACE2 Buffer. • 3. Added 20 μl of Enzyme solution (0.5 ng/μl ACE2) to each well designated “Positive Control” and “Test Inhibitor,” and 20 μl of ACE2 buffer to each well designated “Blank.” • 4. Added 5 μl of Test Inhibitor solution to each well designated “Test Inhibitor.” For the wells labeled “Positive Control” and “Blank,” added 5 μl of 10% DMSO in water (Inhibitor buffer). The final concentration of DMSO in the reaction was kept ≤1%. • 5. Added 25 μl of ACE2 Fluorogenic Substrate to all wells. Protected from light and reaction was incubated at room temperature for 60 minutes.
• 6. The fluorescence intensity of the samples (λexcitation=555 nm; λemission=585 nm) was read in an appropriate microplate reader. Data Analysis
All of the enzyme activity assays were performed in duplicates at each concentration. The fluorescent intensity data were analyzed using the computer software Graphpad Prism. In the absence of the compound, the fluorescent intensity (Ft) in each data set was defined as 100% activity. In the absence of the enzyme, the fluorescent intensity (Fb) in each data set was defined as 0% activity. The percent activity in the presence of each compound was calculated according to the following equation: % activity=(F−Fb)/(Ft−Fb), where F=the fluorescent intensity in the presence of the compound.
The values of percentage activity were plotted on a bar graph.

A further series deals with γ-secretase. The note with it: cited from earlier work.
A further series has as its target HIV aspartyl protease (Human immunodeficiency virus type 1 group M subtype B, UniProt P04585). The note with it: cited from earlier work.
Series [6] relates to HT-29 human colon adenocarcinoma cells. The note with it: read-out: IC50 (DNA damage); cited from earlier work.
The test system is the same in series [7]. The note with it: read-out: IC50 (cytotoxicity); cited from earlier work.
Series [8] deals with mitochondrial long-chain 3-ketoacyl thiolase (Homo sapiens, UniProt P55084). Particulars: cited from earlier work.
Sequence of mitochondrial long-chain 3-ketoacyl thiolase (P55084 34-474): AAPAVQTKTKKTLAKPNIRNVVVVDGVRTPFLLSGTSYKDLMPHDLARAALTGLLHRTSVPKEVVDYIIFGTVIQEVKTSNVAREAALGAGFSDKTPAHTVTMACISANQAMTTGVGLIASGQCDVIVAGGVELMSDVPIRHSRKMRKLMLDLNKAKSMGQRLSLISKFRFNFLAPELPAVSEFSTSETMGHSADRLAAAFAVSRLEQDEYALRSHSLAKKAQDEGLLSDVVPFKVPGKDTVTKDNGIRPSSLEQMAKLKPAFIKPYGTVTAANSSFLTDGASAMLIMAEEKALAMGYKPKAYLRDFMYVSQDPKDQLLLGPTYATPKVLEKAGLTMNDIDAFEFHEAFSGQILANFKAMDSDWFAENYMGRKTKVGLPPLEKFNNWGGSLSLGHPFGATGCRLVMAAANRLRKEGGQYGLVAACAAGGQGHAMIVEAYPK
Sequence of mitochondrial long-chain 3-ketoacyl thiolase (P40939 37-763 partner): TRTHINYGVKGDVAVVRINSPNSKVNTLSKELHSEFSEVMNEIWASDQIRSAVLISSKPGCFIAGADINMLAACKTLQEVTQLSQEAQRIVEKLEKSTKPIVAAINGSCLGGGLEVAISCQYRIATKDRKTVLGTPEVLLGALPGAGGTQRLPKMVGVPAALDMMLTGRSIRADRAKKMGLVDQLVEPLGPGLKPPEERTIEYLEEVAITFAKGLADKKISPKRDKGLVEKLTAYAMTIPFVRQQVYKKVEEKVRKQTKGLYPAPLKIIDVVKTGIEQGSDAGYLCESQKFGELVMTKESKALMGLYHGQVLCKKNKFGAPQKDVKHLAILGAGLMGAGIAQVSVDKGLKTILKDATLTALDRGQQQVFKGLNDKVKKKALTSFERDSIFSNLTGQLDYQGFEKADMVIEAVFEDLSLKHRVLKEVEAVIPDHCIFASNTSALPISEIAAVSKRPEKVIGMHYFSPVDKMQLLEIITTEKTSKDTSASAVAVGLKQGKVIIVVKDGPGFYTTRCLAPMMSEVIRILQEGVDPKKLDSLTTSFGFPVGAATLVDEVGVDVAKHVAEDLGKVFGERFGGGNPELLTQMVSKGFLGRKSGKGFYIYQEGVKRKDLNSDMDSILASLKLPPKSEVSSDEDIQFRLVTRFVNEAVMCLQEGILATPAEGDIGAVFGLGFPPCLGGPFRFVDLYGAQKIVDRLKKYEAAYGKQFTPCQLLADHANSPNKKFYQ

Structures can show the parent of a compound that is named as a salt. Where two headings read alike, the source gives them in different places.

Sequence of transient receptor potential canonical channel 5 (TRPC5) (Q9UL62 whole entry, species assumed): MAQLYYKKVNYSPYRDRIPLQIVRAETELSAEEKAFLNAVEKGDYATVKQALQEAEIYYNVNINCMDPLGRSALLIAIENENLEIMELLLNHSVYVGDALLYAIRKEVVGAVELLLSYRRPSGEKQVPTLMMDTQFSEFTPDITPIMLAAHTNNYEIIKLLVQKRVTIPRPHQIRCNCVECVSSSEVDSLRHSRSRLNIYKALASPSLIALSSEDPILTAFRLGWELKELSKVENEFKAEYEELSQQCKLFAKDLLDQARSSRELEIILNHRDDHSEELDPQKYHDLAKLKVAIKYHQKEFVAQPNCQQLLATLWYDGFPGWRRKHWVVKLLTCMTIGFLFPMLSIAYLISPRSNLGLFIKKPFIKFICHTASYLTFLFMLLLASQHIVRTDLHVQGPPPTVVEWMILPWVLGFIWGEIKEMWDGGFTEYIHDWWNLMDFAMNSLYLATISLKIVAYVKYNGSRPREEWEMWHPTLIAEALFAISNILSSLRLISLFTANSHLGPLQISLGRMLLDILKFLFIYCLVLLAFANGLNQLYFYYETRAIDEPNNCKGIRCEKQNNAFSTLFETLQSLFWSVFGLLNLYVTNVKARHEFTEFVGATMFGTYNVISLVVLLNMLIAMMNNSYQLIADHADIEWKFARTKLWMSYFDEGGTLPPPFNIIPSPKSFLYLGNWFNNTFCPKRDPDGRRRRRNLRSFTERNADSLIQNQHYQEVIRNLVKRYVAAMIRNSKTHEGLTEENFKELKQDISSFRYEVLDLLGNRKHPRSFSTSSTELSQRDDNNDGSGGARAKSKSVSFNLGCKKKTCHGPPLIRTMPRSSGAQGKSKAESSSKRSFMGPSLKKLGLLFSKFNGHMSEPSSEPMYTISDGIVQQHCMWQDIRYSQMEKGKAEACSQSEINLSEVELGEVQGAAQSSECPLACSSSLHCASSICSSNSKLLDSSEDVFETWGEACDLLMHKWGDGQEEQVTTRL
Sequence of HIV-2 protease (P04584 514-612 limits assumed): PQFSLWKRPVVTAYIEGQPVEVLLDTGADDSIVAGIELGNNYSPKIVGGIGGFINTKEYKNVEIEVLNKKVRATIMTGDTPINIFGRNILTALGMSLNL

As for “1-[[4-[2-(hexahydro-1H-azepin-1-yl)ethoxy]phenyl]methyl]-2-(4-hydroxyphenyl)-3-methyl-1H-indol-5-ol, acetate [Bazedoxifene (acetate)]”, in the series on MCF-7:C cells, the reduction of growth is given as 80%.
Regarding `CC(C)(C)C(=O)OCOP(=O)(COCCn1cnc2c(N)ncnc21)OCOC(=O)C(C)(C)C` [Adefovir dipivoxil, 2,2-dimethyl-propanoic acid, 1,1′-[[[[2-(6-amino-9H-purin-9-yl)ethoxy]methyl]phosphinylidene]bis(oxymethylene)]ester], the ED50 in the series with HBV is listed as 0.2 μmol/kg per day. The concentration for a half-maximal effect (EC50) (in general, the concentration that produces a half-maximal response) with hepatitis B virus (HBV) is 517 nM. The CC50 – broadly, the concentration at which the toxic effect on the cells reaches its halfway point – with HepG2 2.2.15 cells is 540000 nM.
With `CC(C)CN(C[C@@H](O)[C@H](Cc1ccccc1)NC(=O)O[C@H]1CCOC1)S(=O)(=O)c1ccc(N)cc1` [Amprenavir, N-[(1S,2R)-3-[[(4-aminophenyl)sulfonyl](2-methylpropyl)amino]-2-hydroxy-1-(phenylmethyl)propyl]-carbamic acid, (3S)-tetrahydro-3-furanyl ester], the IC50 with HIV-1 was 150 nM.
Consider `Clc1ccc(Cn2c(CN3CCCC3)nc3ccccc32)cc1` [Clemizole, 1-[(4-chlorophenyl)methyl]-2-(1-pyrrolidinylmethyl)-1H-benzimidazole, monohydrochloride], for which the IC50 in series [1] is 1000 to 1300 nM.
Turning to `CCC[C@@H]1C[C@@H](C(=O)N[C@@H]([C@H]2O[C@H](SC)[C@H](O)[C@@H](O)[C@H]2O)[C@H](C)Cl)N(C)C1` [Clindamycin, methyl 7-chloro-6,7,8-trideoxy-6-[[[(2S,4R)-1-methyl-4-propyl-2-pyrrolidinyl]carbonyl]amino]-1-thio-L-threo-α-D-galacto-octopyranoside], the minimum inhibitory concentration (MIC) (commonly the least concentration at which growth counts as inhibited) with S. epidermidis was 0.1 to 0.2 µg/mL; in the series with S. aureus it was 0.04 to 1.6 µg/mL; with S. viridans, 0.005 to 0.2 µg/mL; in the series with S. pneumoniae, 0.002 to 0.1 µg/mL.
Take `CC(=O)CCCCn1c(=O)c2c(ncn2C)n(C)c1=O` [Pentoxifylline, 3,7-dihydro-3,7-dimethyl-1-(5-oxohexyl)-1H-purine-2,6-dione]: the IC50 in series [2] is 85000 nM; in series [3] it was 49000 nM; in [4] it was 500000 nM.
With `CC(C)(C)NC(=O)[C@@H]1C[C@@H]2CCCC[C@@H]2CN1C[C@@H](O)[C@H](Cc1ccccc1)NC(=O)[C@H](CC(N)=O)NC(=O)c1ccc2ccccc2n1.CS(=O)(=O)O` [Saquinavir, (2S)—N^1—[(1S,2R)-3-[(3S,4aS,8aS)-3-[[(1,1-dimethylethyl)amino]carbonyl]octahydro-2(1H)-isoquinolinyl]-2-hydroxy-1-(phenylmethyl)propyl]-2-[(2-quinolinylcarbonyl)amino]-butanediamide, monomethanesulfonate], in series [5], the increase of bioavailability was 325 fold. For the same molecule, at HIV-2 protease, the Ki – broadly, the dissociation constant of the complex between target and ligand, obtained from inhibition or displacement – was less than 0.1 nM.
For `CC(C)[C@H](O)C(=O)N[C@@H](C)C(=O)N[C@@H]1C(=O)N(C)CCc2ccccc21` [Semagacestat, (2S)-2-hydroxy-3-methyl-N-[(1S)-1-methyl-2-oxo-2-[[(1S)-2,3,4,5-tetrahydro-3-methyl-2-oxo-1H-3-benzazepin-1-yl]amino]ethyl]-butanamide], the IC50 is 14.1 nM with Notch signaling; 12 nM on γ-secretase (Aβ38, read-out: IC50 (production of Aβ38)); 12.1 nM on γ-secretase (Aβ40, read-out: IC50 (production of Aβ40)); 10.9 nM at γ-secretase (Aβ42, read-out: IC50 (production of Aβ42)). Also, the “ACE2 Activity (Fluorescence count) Repeat 1” value on ACE2 (Semagacestat 0.00586 μM, Repeat 1) is 16794; on ACE2 (Semagacestat 0.0117 μM, Repeat 1) it was 17480; on ACE2 (Semagacestat 0.0234 μM, Repeat 1), 17334; on ACE2 (Semagacestat 0.188 μM, Repeat 1), 16603. Further, the activity at 0.00586 µM amounted to 99% at ACE2 (Semagacestat 0.00586 μM, Repeat 1, read-out: % Activity Repeat 1) and 104% on ACE2 (Semagacestat 0.00586 μM, Repeat 2, read-out: % Activity Repeat 2). The “ACE2 Activity (Fluorescence count) Repeat 2” value is on record as 17665 at ACE2 (Semagacestat 0.00586 μM, Repeat 2); 17772 on ACE2 (Semagacestat 0.0117 μM, Repeat 2); 17846 on ACE2 (Semagacestat 0.0234 μM, Repeat 2); 16796 on ACE2 (Semagacestat 0.188 μM, Repeat 2). For the same molecule, the activity at 0.0117 µM worked out at 103% at ACE2 (Semagacestat 0.0117 μM, Repeat 1, read-out: % Activity Repeat 1) and 105% on ACE2 (Semagacestat 0.0117 μM, Repeat 2, read-out: % Activity Repeat 2). Moreover, the activity at 0.0234 µM at ACE2 (Semagacestat 0.0234 μM, Repeat 1, read-out: % Activity Repeat 1) came out at 102%; on ACE2 (Semagacestat 0.0234 μM, Repeat 2, read-out: % Activity Repeat 2), 105%. Besides, the activity at 0.188 µM on ACE2 (Semagacestat 0.188 μM, Repeat 1, read-out: % Activity Repeat 1) was determined as 97%; at ACE2 (Semagacestat 0.188 μM, Repeat 2, read-out: % Activity Repeat 2), 99%. The activity at […] on ACE2 (Semagacestat 0.75 μM, Repeat 1, read-out: % Activity Repeat 1) was found to be 85%; on ACE2 (Semagacestat 0.75 μM, Repeat 2, read-out: % Activity Repeat 2) it was 98%; on ACE2 (Semagacestat 1.5 μM, Repeat 1, read-out: % Activity Repeat 1) it was 78%; at ACE2 (Semagacestat 1.5 μM, Repeat 2, read-out: % Activity Repeat 2), 85%. For the same molecule, the “effect on ACE2 activity (in words)” value on ACE2 (test range 0.0029-1.5) is reported as “inhibited ACE2 activity”.
Consider `CCC[C@@]1(CCc2ccccc2)CC(O)=C([C@H](CC)c2cccc(NS(=O)(=O)c3ccc(C(F)(F)F)cn3)c2)C(=O)O1` [Tipranavir, N-[3-[(1R)-1-[(6R)-5,6-dihydro-4-hydroxy-2-oxo-6-(2-phenylethyl)-6-propyl-2H-pyran-3-yl]propyl]phenyl]-5-(trifluoromethyl)-2-pyridinesulfonamide], for which the Ki at HIV aspartyl protease is less than 1 nM.
Regarding `CC[C@@]1(O)C(=O)OCc2c1cc1n(c2=O)Cc2cc3c(CN(C)C)c(O)ccc3nc2-1` [Topotecan, 10-[(dimethylamino)methyl]-4S-ethyl-4,9-dihydroxy-1H-pyrano[3′,4′:6,7]indolizino[1,2-b]quinoline-3,14(4H,12H)-dione, monohydrochloride], the IC50 is 280 nM in [6] and 33 nM in [7].
`COc1ccc(CN2CCNCC2)c(OC)c1OC` [Trimetazidine (hydrochloride), 1-[(2,3,4-trimethoxyphenyl)methyl]-piperazine, dihydrochloride]: in series [8], the IC50 is 75 nM.

Values taken from patent US12551475B2, “Methods and compositions for treating RNA viral infections” (Model Medicines, Inc., priority 2020, dated 2026).
